Paper PMC9931918, “Conjugation to a cell-penetrating peptide drives the tumour accumulation of the GLP1R antagonist exendin(9-39)” (European Journal of Nuclear Medicine and Molecular Imaging, 2022)

What was measured:
in vivo = assay: in vivo; design: species or system BALB/c nude mice; settings: BALB/c nude, mouse, iv, 20 pmol/mouse, total radioactivity
Description: Mice were injected subcutaneously on the right flank with 0.2 mL of a cell suspension containing 15,000,000 INS-1 cells/mL in RPMI (3,000,000 cells/mouse). When the tumours were 2–5 mm in diameter, mice were randomly divided into groups and the experiment was performed. All mice were intravenously injected with 20 pmol/mouse (0.37 MBq/mouse) of the corresponding radiolabelled exendin variant in approximately 200 μL PBS/0.5% BSA. 12 mice received [^111In]In-DTPA-exendin-4 (referred to as exendin-4), 12 mice received [^111In]In-DTPA-exendin-4-Pen (referred to as exendin-4-Pen), 11 mice received [^111In]In-DTPA-exendin(9-39) (referred to as exendin(9-39) and 11 mice received [^111In]In-DTPA-exendin(9-39)-Pen (referred to as exendin(9-39)-Pen). To determine non-specific uptake, an excess of unlabelled peptide was injected (blocking group). A 100-fold excess of unlabelled DTPA-exendin-4 or DTPA-exendin(9-39) was co-injected (5 or 6 mice per group). Blocking groups were only included at the 4 h timepoint, to reduce the number of mice used as a control. After 1 h and 4 h after injection, mice were euthanized by CO2/O2 asphyxiation. Blood, tumours and relevant tissues (muscle, heart, lung, spleen, pancreas, kidney, liver, stomach, duodenum and colon) of all animals were dissected, weighed and measured in a gamma-counter (2480 Wizard 3”, LKB/Wallace, Perkin-Elmer, Waltham, MA, USA). The percentage injected dose per gram tissue (% ID/g) was determined for each tissue, based on the cpm measured for diluted injection mixtures (standards). For the statistical analysis, the data were log transformed to correct for differences in the intra-group spread and ensure a normal distribution. The difference in tumour uptake between the four compounds was evaluated separately for each timepoint, with a one-way ANOVA and Tukey’s post hoc test. We accepted a type I alpha error of 0.05. The number of animals per group was selected assuming an SD of 10% of the mean, to reach a statistical power of 80% (beta type error = 0.2).

CHL-GLP1R cells = assay: Binding and internalisation assay of 111In-labelled exendin variants on GLP1R-positive cells; type: cell-based, Chinese hamster

## CC[C@H](C)[C@H](NC(=O)[C@H](Cc1ccccc1)NC(=O)[C@H](CC(C)C)NC(=O)[C@H](CCCNC(=N)N)NC(=O)[C@@H](NC(=O)[C@H](C)NC(=O)[C@H](CCC(=O)O)NC(=O)[C@H](CCC(=O)O)NC(=O)[C@H](CCC(=O)O)NC(=O)[C@H](CCSC)NC(=O)[C@H](CCC(N)=O)NC(=O)[C@H](CCCCN)NC(=O)[C@H](CO)NC(=O)[C@H](CC(C)C)NC(=O)[C@@H](N)CC(=O)O)C(C)C)C(=O)N[C@@H](CCC(=O)O)C(=O)N[C@@H](Cc1c[nH]c2ccccc12)C(=O)N[C@@H](CC(C)C)C(=O)N[C@@H](CCCCN)C(=O)N[C@@H](CC(N)=O)C(=O)NCC(=O)NCC(=O)N1CCC[C@H]1C(=O)N[C@@H](CO)C(=O)N[C@@H](CO)C(=O)NCC(=O)N[C@@H](C)C(=O)N1CCC[C@H]1C(=O)N1CCC[C@H]1C(=O)N1CCC[C@H]1C(=O)N[C@@H](CO)C(=O)N[C@@H](CCCNC(=N)N)C(=O)N[C@@H](CCC(N)=O)C(=O)N[C@H](C(=O)N[C@@H](CCCCN)C(=O)N[C@H](C(=O)N[C@@H](Cc1c[nH]c2ccccc12)C(=O)N[C@@H](Cc1ccccc1)C(=O)N[C@@H](CCC(N)=O)C(=O)N[C@@H](CC(N)=O)C(=O)N[C@@H](CCCNC(=N)N)C(=O)N[C@@H](CCCNC(=N)N)C(=O)N[C@@H](CCSC)C(=O)N[C@@H](CCCCN)C(=O)N[C@@H](Cc1c[nH]c2ccccc12)C(=O)N[C@@H](CCCCN)C(=O)N[C@@H](CCCCNC(=O)CN(CCN(CCN(CC(=O)O)CC(=O)O)CC(=O)O)CC(=O)O)C(N)=O)[C@@H](C)CC)[C@@H](C)CC [[111In]In-exendin(9-39)-Pen, metal not drawn]
In vivo; pancreatic uptake
  tissue uptake at 1 h: 2.2 ± 0.3 %ID/g
  tissue uptake at 4 h: 1.2 ± 0.2 %ID/g
In vivo; tumour accumulation
  tissue uptake at 1 h: 8.6 ± 2.2 %ID/g
  tissue uptake at 4 h: 6.6 ± 1.2 %ID/g
CHL-GLP1R cells; 30 minutes and 4 hours incubation at 37 °C, approx. 50 pM, acid-releasable fraction
  binding to CHL-GLP1R cells compared with the unconjugated peptide: increased binding
CHL-GLP1R cells; CHL-GLP1R cells, 4 hours incubation at 37 °C, approx. 50 pM 111In-labelled peptide in RPMI-1640 with 0.5% BSA, acid wash then NaOH lysis, γ-counter, mean ± SD of three wells
  internalisation (percentage of the total activity added): 17.7 ± 0.5%
